Test results published in US20240082269A1, “METHODS AND PRODUCTS INCLUDING SPECIFIC CANNABINOIDS” (priority 2022, published 2024).

Assay: Four Hempson Oil studies taken together (safety, overall THCV effect)
Type: in vivo, human
Details: daily use of 8 mg doses of THCV over 60-180 days
Text: The following pre-clinical and clinical research has shown that small daily oral amounts of Hempson Oil®—a hemp-extract high in cannabidiol (CBD), tetrahydrocannabivarin (THCV), and cannabidivarin (CBDV)—have consistent effects of weight loss, reduction in abdominal girth, blood sugar (HgbA1c) and blood lipid ratios. These comparative examples are shown merely for the effect the active ingredients may have upon metabolic disorders and weight loss.
The Hempson Oil Studies: from 2019 until April 2021, several independent high quality human trials were completed using an oral Hempson® oil in a micellized tincture or non-micellized oil in gel caps. All of the studies were NIH-supported. All studies were double-blind, placebo-controlled, multisite, and randomized effectiveness studies of a hemp extract, known as Hempson® oil that is high in CBD, THCV, and CBDV. The studies used either type II diabetics, obese or healthy adults. The studies done with micellized oil tincture used lower doses with micellized Hempson® oil because of increased the absorption and bioavailability of the cannabinoids.
In each study, subjects were randomly assigned to either the Hempson Oil® group (100 subjects) or the control group (50 subjects). Each subject signed a study consent form. Subjects were instructed to orally ingest this study product once daily. All subjects were instructed not to change their eating, drinking, or exercise habits for the duration of this study.
All of the study results reported below were statistically significant (p<0.05) compared to placebo results.

CCCc1cc(O)c2c(c1)OC(C)(C)[C@@H]1CCC(C)=C[C@@H]21 [THCV, tetrahydrocannabivarin]
A1C blood levels (diabetic measure): decrease in A1C blood levels | Abdominal girth: decrease of abdominal girth | Weight: statistically significant weight loss
